Results taken from patent US20230357099A1, “PYRAZOLO [3,4-B] PYRIDINE-4-CARBOXAMIDE NITRIFICATION INHIBITOR” (EUROCHEM ANTWERPTEN, priority 2020, published 2023).
Where two headings read alike, the source gives them in different places.

Assays:
[1] = test system: Nitrososphaera viennensis; experiment: Nitrification inhibition assay on Nitrososphaera viennensis (nitrite, Griess); assay type: cell-based, Nitrososphaera viennensis EN76T; conditions: for activity at 2.5 µM: Nitrososphaera viennensis, 2.5 µM compound, structural variants outside formula (I), read-out: Relative nitrification (%) by Nitrososphaera viennensis treated with 2.5 µM compound
Method in brief: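 N. viennensis EN76T cultures in FWM (pH 7.5, NH4Cl-supplemented), 5× concentrated, treated with compounds at 2.5 µM final (0.25% DMSO) and incubated 24 h at 42 °C. Nitrite measured by Griess absorbance at 540 nm against a standard curve. Relative nitrification normalized between DMSO (no compound) and 100 µM PTIO controls.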

[2] = test system: ABIL (ammonia-binding liquid inoculum), nitrifying microbial enrichment containing both AOA and AOB; experiment: Nitrification inhibition assay on ABIL (ammonium consumption); assay type: cell-based; conditions: for activity at 10 µM: 10 µM compound
[3] = test system: ammonia oxidizing archaea; experiment: Abundance of ammonia oxidizing archaea in DMP-treated soil
[4] = test system: agricultural soils; experiment: In soil nitrification inhibition assay; conditions: for inhibition at 50 µM / inhibition at 100 µM: soil; for inhibition at 50 µM: 50 µM of each compound
Experimental: Top layer (0 to 10 cm) soil samples were collected from different fields in Belgium (Merelbeke, Sint-Laureins and Moorslede). Vegetation was removed and samples were taken from different plots. All soil samples were mixed and sieved (mesh size 2.8 mm) to filter large debris and homogenize soil. The soil was stored at 5° C. in plastic containers covered with Saran foil to prevent changes in microbial community composition and to maintain the original soil water content.
Soil water content was determined by drying 20 g soil for ≥ 48 h in a 60° C. oven and measuring weight before and after drying. Based on the soil water content (± 20%), compound solutions were prepared so that addition of 200 µl compound and 200 µl NH4Cl solution would result in a final compound concentration of 50 µM (unless otherwise stated) and a final NH4+ concentration of 10 mM. Per treatment, 5 small pots were filled with 20 g soil. Next, the soil was treated first with the respective compound solution and then with the NH4Cl solution. Per tray, positive (50 µM DMP) and negative controls (DMSO) were included. […] Demineralized water was added to the soil every 2 to 3 days to a soil weight of 20 g. In the end, each sample of 20 g soil was dissolved in 100 ml 1 M KCI and shaken for 1 hour, followed by filtration through Whatmann® paper. The filtrate was used to measure pH, NH4+ and NO3— concentrations. The nitrification percentage was calculated as the ratio of the consumed ammonium in treated soil versus the consumed ammonium in non-treated soil; the nitrification inhibition percentage was calculated as ‘100% - the nitrification percentage’.

[5] = test system: agricultural soils (Moorslede and Sint-Laureins); experiment: Greenhouse gas measurements from fertilized soil
Experimental: Two agricultural soils coming from fields in Moorslede and Sint-Laureins were used. Screw top vials were filled with 10 g soil. Vials were sealed with Parafilm and preincubated at 21° C. in the dark for 5 days. After pre-incubation, vials were ventilated using a fan. Then 100 µL of a 1 mM compound solution (10 % DMSO) was added, immediately followed by the addition of 100 µL 200 mM NH4Cl. Vials were closed gastight and 5 mL synthetic air was added to the headspace using a plastic syringe, followed by the transfer of 5 mL headspace to an evacuated 3 mL exetainer. Vials were incubated at 21° C. in the dark and background NO concentration was noted. At each sampling timepoint, 5 mL synthetic air was added again to the headspace using a plastic syringe, again followed by the transfer of 5 mL headspace to an evacuated 3 mL exetainer. Vials were ventilated and closed again, and new gas samples were transferred to exetainers like before. N2O in the exetainers were measured via gas chromatography (GC-14 B (Schimadzu) equipped with Haysep Q columns (same spec) and an ECD detector, He at c.a. 20 mL min, 70° C.). The CO2 and CH4 concentration in the 3 mL exetainer vials was measured using a GC (Trace-GC, Interscience) equipped with Haysep Q columns (80-100, ⅛″ divided in 2 part 0.25 and 2.0 m connected with a 6 port valve to allow backflush of water vapor) and a FID (CH4) and TCD (CO2). Carrier gas was He c.a. 20 mL/min kept at 90° C. NO concentration was measured directly by connecting a chemiluminescence NO detector (CLD 77 AM, eco physics) directly to the headspace using a needle.

[6] = structural variants outside formula (I), read-out: Relative nitrification (%) by ABIL treated with 10 µM compound

## COCCN1CCN(Cc2cccc3cn[nH]c23)CC1=O [Example 164]
[1]
  activity at 2.5 µM: 100%
[2]; [6]
  activity at 10 µM: 100%

## CC(CNC(=O)c1cccc2cn[nH]c12)CC1(C)OCCO1 (stereo not drawn) [Example 143]
[1]
  activity at 2.5 µM: 100%
[2]; [6]
  activity at 10 µM: 100%

## CCC(CC)CN(CC)C(=O)c1cnc2c(c1)c(C)nn2C [Example 54]
[1]
  activity at 2.5 µM: 96%
[2]; [6]
  activity at 10 µM: 100%

## CSCC(=O)Nc1ccc2[nH]ncc2c1 [Example 126]
[1]
  activity at 2.5 µM: 100%
[2]; [6]
  activity at 10 µM: 100%

## Cc1nc2c(cnn2C(C)C)c(C)c1CCC(=O)N1CCSCC1 [Example 26]
[1]
  activity at 2.5 µM: 100%
[2]; [6]
  activity at 10 µM: 92%

## Cc1cn[nH]c1C [DMP, 3,4-dimethylpyrazole]
[3]
  effect on the presence (abundance) of ammonia oxidizing archaea: no inhibiting effect on the presence of archaea
[4]; 72 h, Soil 2, 3 days
  inhibition at 50 µM: 68%
[4]; 72 h, Soil 3, 3 days
  inhibition at 50 µM: 52%
[4]; 168 h, Soil 1, 7 days
  inhibition at 50 µM: 88%
[4]; 168 h, Soil 1, 7 days, 100 µM
  inhibition at 100 µM: 84%
[4]; 168 h, Soil 2, 7 days
  inhibition at 50 µM: 14%
[4]; 168 h, Soil 2, 7 days, 100 µM (Table 2)
  inhibition at 100 µM: 14%
[4]; 168 h, Soil 2, 7 days, 100 µM of each compound, 6 inhibitors alone and combined with Example 2
  inhibition at 100 µM: 54%
[4]; 168 h, Soil 3, 7 days
  inhibition at 50 µM: 0%
[4]; 168 h, Soil 3, 7 days, 100 µM
  inhibition at 100 µM: 0%
[5]; Moorslede soil, N2O
  Cumulative emission at indicated timepoint [ppb], N2O, 4 h: 0 ppb
  Cumulative emission at indicated timepoint [ppb], N2O, 24 h: 0 ppb
  Cumulative emission at indicated timepoint [ppb], N2O, 48 h: 0 ppb
  Cumulative emission at indicated timepoint [ppb], N2O, 72 h: 0 ppb
  Cumulative emission at indicated timepoint [ppb], N2O, 99 h: 0 ppb
[5]; Moorslede soil, NO
  Cumulative emission at indicated timepoint [ppb], NO, 4 h: 48 ppb
  Cumulative emission at indicated timepoint [ppb], NO, 24 h: 49 ppb
  Cumulative emission at indicated timepoint [ppb], NO, 48 h: 47 ppb
  Cumulative emission at indicated timepoint [ppb], NO, 72 h: 64 ppb
  Cumulative emission at indicated timepoint [ppb], NO, 99 h: 64 ppb
[5]; Sint-Laureins soil, N2O
  Cumulative emission at indicated timepoint [ppb], N2O, 4 h: 0 ppb
  Cumulative emission at indicated timepoint [ppb], N2O, 24 h: 0 ppb
  Cumulative emission at indicated timepoint [ppb], N2O, 48 h: 0 ppb
  Cumulative emission at indicated timepoint [ppb], N2O, 72 h: 0 ppb
  Cumulative emission at indicated timepoint [ppb], N2O, 99 h: 0 ppb
[5]; Sint-Laureins soil, N2O, 215 h
  Cumulative emission at 215 h [ppb], N2O: 47 ppb
[5]; Sint-Laureins soil, NO
  Cumulative emission at indicated timepoint [ppb], NO, 4 h: 26 ppb
  Cumulative emission at indicated timepoint [ppb], NO, 24 h: 59 ppb
  Cumulative emission at indicated timepoint [ppb], NO, 48 h: 98 ppb
  Cumulative emission at indicated timepoint [ppb], NO, 72 h: 162 ppb
  Cumulative emission at indicated timepoint [ppb], NO, 99 h: 187 ppb
[5]; Sint-Laureins soil, NO, 215 h
  Cumulative emission at 215 h [ppb], NO: 243 ppb

## O=C(Nc1ccc2[nH]ncc2c1)C1(c2ccc(F)cc2)CC1 [Example 162]
[1]
  activity at 2.5 µM: 100%
[2]; [6]
  activity at 10 µM: 100%

## CC1(C)N([O])C(c2ccccc2)=[N+]([O-])C1(C)C [PTIO, 2-phenyl-4,4,5,5-tetramethylimidazoline-1-oxyl 3-oxide]
[1]; PTIO at 25 µM
  inhibition in the N. viennensis assay: does not show inhibition anymore
[2]; PTIO at 33 µM
  inhibition in the ABIL assay: does not show inhibition anymore

## COC(C)(C)c1noc(Cc2n[nH]c3ccccc23)n1 [Example 125]
[1]
  activity at 2.5 µM: 97%
[2]; [6]
  activity at 10 µM: 100%

## c1nc[nH]n1 [1,2,4-triazole, 1H-1,2,4-triazole]
[4]; Soil 2, 7 days, 100 µM of each compound, 6 inhibitors alone and combined with Example 2
  Nitrification inhibition (%): 32%

## O=C1NC(=S)S/C1=C\c1cccc2cn[nH]c12 [Example 124]
[1]
  activity at 2.5 µM: 99%
[2]; [6]
  activity at 10 µM: 100%

## CCCCc1nnc(NC(=O)c2n[nH]c3ccccc23)s1 [Example 97]
[1]
  activity at 2.5 µM: 100%
[2]; [6]
  activity at 10 µM: 86%

## Cc1nn(C)c2nc(C(C)C)cc(C(=O)N(C)c3nc4ccccc4s3)c12 [Example 3]
[1]; 0.5 µM compound, 0% = as strong as 100 µM PTIO, 100% = no inhibition
  N. viennensis - relative nitrification (%) at 0.5 µM: 49%
[1]; 5 µM compound, 0% = as strong as 100 µM PTIO, 100% = no inhibition
  N. viennensis - relative nitrification (%) at 5 µM: 0%
[1]; 25 µM compound, 0% = as strong as 100 µM PTIO, 100% = no inhibition
  N. viennensis - relative nitrification (%) at 25 µM: 0%
[2]; 2 µM compound, 0% = as strong as 100 µM PTIO, 100% = no inhibition
  ABIL - relative nitrification (%) at 2 µM: -30%
[2]; 24 h, 24 h, 0% = as strong as 100 µM PTIO, 100% = no inhibition, read-out: ABIL - relative nitrification (%) at 10 µM
  activity at 10 µM: -41%

## Cc1nc2c(c(C)nn2C)c(C)c1CCC(=O)NC(C)C1CCCO1 (stereo not drawn) [Example 57]
[1]
  activity at 2.5 µM: 97%
[2]; [6]
  activity at 10 µM: 100%
